Reference: patent US7932269B2, “Sulfonamides as orexin antagonists” (Hoffmann-La Roche Inc., priority 2008, dated 2011)
No end group written: not given here.

biological target: T1, human orexin-2 (hOX2) receptors (Homo sapiens, UniProt O43614); test: Intracellular Ca2+ mobilization assay (FLIPR), orexin-A as agonist; assay type: cell-based; details: CHO(dHFr-) cells stably expressing hOX2; antagonist applied 25 min before EC80 of orexin-A; Kb=IC50/(1+[A]/EC50); read-out: Kb (μM) OX2R (human)
T1 construct: expressed in transfected cells
T1 sequence (O43614 1-444): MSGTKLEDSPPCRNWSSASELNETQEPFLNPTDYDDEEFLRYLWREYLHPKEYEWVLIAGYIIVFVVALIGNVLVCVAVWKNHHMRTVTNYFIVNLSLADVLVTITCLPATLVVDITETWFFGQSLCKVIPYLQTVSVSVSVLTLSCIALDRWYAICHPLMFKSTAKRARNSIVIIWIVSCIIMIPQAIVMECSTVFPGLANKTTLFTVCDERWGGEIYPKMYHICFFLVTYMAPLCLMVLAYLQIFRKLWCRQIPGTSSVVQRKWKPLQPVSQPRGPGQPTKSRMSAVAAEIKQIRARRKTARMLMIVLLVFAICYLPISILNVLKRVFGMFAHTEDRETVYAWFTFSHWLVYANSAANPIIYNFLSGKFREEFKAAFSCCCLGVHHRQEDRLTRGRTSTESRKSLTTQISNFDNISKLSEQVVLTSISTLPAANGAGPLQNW
Procedure: Intracellular Ca^2+ Mobilization Assay
The Chinese Hamster Ovary (dHFr-) mutant cell line stably expressing human orexin-1 (hOX1) or human orexin-2 (hOX2) receptors were maintained in Dulbecco's Modified Eagle Medium (1X) with GlutaMax™ 1, 4500 mg/L D-Glucose and Sodium Pyruvate (Catalog No. 31966-021, Invitrogen, Carlsbad, Calif.), 5% dialyzed fetal calf serum (Catalog No. 26400-044), 100 μg/ml penicillin and 100 μg/ml streptomycin. The cells were seeded at 5×10^4 cells/well in the poly-D-lysine treated, 96-well, black/clear-bottomed plates (Catalog No. BD356640, BD Biosciences, Palo Alto, Calif.). 24 h later, the cells were loaded for 1 hr at 37° C. with 4 μM Flou-4 acetoxymethyl ester (Catalog No. F-14202, Molecular Probes, Eugene, Oreg.) in FLIPR buffer (1×HBSS, 20 mM HEPES, 2.5 mM Probenecid). Hanks' Balanced Salt Solution (HBSS) (10X) (catalog No. 14065-049) and HEPES (1M) (catalog No. 15630-056) were purchased from Invitrogen, Carlsbad, Calif. Probenecid (250 mM) (catalog No. P8761) was from Sigma, Buchs, Switzerland. The cells were washed five times with FLIPR buffer to remove excess dye and intracellular calcium mobilization, [Ca^2+] were measured using a Fluorometric Imaging Plate Reader (FLIPR-96, Molecular Devices, Menlo Park, Calif.) as described previously (Malherbe et al., Mol. Pharmacol., 64, 823-832, 2003). Orexin A (catalog No.1455, Toris Cookson Ltd, Bristol, UK) was used as agonist. Orexin A ([…] stock solution in DMSO) was diluted in FLIPR buffer +0.1% BSA. The EC50 and EC80 values of orexin-A were measured daily from standard agonist concentration-response curves in CHO(dHFr-)-OX1R and —OX2R cell lines. All compounds were dissolved in 100% DMSO. Inhibition curves were determined by addition of 11 concentrations (0.0001-10 μM) of inhibitory compounds and using EC80 value of orexin-A as agonist (a concentration which gave 80% of max agonist response, determined daily). The antagonists were applied 25 min (incubation at 37° C.) before the application of the agonist. Responses were measured as peak increase in fluorescence minus basal, normalized to the maximal stimulatory effect induced by EC80 value of orexin-A or orexin-B. Inhibition curves were fitted according to the Hill equation: y=100/(1+(x/1C50)^nH), where nH=slope factor using Excel-fit 4 software (Microsoft). Kb values were calculated according to the following equation Kb=IC50/(1+[A]/EC50) where A is the concentration of agonist added which is very close to agonist EC80 value, and IC50 and EC50 values were derived from the antagonist inhibition and orexin-A or B agonist curves, respectively.

Molecule | Kb [µM]
COc1ccc(S(=O)(=O)N(CC(=O)N2CCCC2c2ccccc2)c2ccccc2OC)cc1 (stereo not drawn) [Example 43, 4-Methoxy-N-(2-methoxy-phenyl)-N-[2-oxo-2-(2-phenyl-pyrrolidin-1-yl)-ethyl]-benzenesulfonamide] | 0.0032
O=C(CN(c1ccc(Cl)cc1)S(=O)(=O)c1ccc(Cl)cc1)N1CCCC1c1ccc(F)cc1 (stereo not drawn) [Example 19, 4-Chloro-N-(4-chloro-phenyl)-N-{2-[2-(4-fluoro-phenyl)-pyrrolidin-1-yl]-2-oxo-ethyl}-benzenesulfonamide] | 0.002

Other lines, results leading:

Kb [µM] | Molecule
0.0011 | O=C(CN(c1ccc(Cl)cc1)S(=O)(=O)c1cccc(Cl)c1)N1CCCC1c1ccccc1 (stereo not drawn) [Example 4, 3-Chloro-N-(4-chloro-phenyl)-N-[2-oxo-2-(2-phenyl-pyrrolidin-1-yl)-ethyl]-benzenesulfonamide]
0.0025 | O=C(CN(c1ccc(Cl)cc1)S(=O)(=O)c1ccccc1F)N1CCCC1c1ccccc1 (stereo not drawn) [Example 13, N-(4-Chloro-phenyl)-2-fluoro-N-[2-oxo-2-(2-phenyl-pyrrolidin-1-yl)-ethyl]-benzenesulfonamide]
0.0017 | COc1cccc(S(=O)(=O)N(CC(=O)N2CCCC2c2ccccc2)c2ccc(Cl)cc2)c1 (stereo not drawn) [Example 1, N-(4-Chloro-phenyl)-3-methoxy-N-[2-oxo-2-(2-phenyl-pyrrolidin-1-yl)-ethyl]-benzenesulfonamide]

test system: rat; test: not given; details: icv administration; cited from earlier work

Molecule | reduction of total REM sleep [%]
OX-A: orexin-A/hypocretin1, 33 amino acid hypothalamic neuropeptide derived from prepro-orexin (QPLPDCCRQKTCSCRLYELLHGAGNHAAGILTL; ends and bridges not checked; cysteine pairing not given here; UniProt O43612 34-66, looked up) | 84
